The target in one series is T1, papain (Carica papaya, UniProt P00784).
T1 construct: purchased Sigma Chem. Co
T1 sequence (P00784 134-345): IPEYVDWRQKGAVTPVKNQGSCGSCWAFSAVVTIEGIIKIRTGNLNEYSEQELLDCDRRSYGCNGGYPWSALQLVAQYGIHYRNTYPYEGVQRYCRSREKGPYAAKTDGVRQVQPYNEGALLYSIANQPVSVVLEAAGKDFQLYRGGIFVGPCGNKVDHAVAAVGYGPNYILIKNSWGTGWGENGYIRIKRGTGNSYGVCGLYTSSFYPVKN
In words: Papain inhibitory activity (method of K. Hanada et al.). Format: biochemical. To be noted: amount of inhibitor for 50% inhibition; papain 80 μg/ml, Sigma, twice crystallized. Here is the method:
Papain inhibitory activity of the compounds of the present invention was assayed by the method of K. Hanada et al [Argic. Biol. Chem., 42, (3)523(1978)] using papain (80 μg/ml, Sigma Chem. Co.) after twice crystallization.

The conditions of series [1]: in vivo. The procedure: The response was evaluated by the blueing spot at 15 minutes after the dye injection.
Series [2] concerns the target T2, CANP prepared from a muscle of hereditary muscular dystrophy chicken (Gallus gallus, UniProt P00789).
T2 construct: CANP prepared from a muscle of hereditary muscular dystrophy chicken; from tissue; host or cells: muscle of hereditary muscular dystrophy chicken
T2 sequence (P00789 1-705): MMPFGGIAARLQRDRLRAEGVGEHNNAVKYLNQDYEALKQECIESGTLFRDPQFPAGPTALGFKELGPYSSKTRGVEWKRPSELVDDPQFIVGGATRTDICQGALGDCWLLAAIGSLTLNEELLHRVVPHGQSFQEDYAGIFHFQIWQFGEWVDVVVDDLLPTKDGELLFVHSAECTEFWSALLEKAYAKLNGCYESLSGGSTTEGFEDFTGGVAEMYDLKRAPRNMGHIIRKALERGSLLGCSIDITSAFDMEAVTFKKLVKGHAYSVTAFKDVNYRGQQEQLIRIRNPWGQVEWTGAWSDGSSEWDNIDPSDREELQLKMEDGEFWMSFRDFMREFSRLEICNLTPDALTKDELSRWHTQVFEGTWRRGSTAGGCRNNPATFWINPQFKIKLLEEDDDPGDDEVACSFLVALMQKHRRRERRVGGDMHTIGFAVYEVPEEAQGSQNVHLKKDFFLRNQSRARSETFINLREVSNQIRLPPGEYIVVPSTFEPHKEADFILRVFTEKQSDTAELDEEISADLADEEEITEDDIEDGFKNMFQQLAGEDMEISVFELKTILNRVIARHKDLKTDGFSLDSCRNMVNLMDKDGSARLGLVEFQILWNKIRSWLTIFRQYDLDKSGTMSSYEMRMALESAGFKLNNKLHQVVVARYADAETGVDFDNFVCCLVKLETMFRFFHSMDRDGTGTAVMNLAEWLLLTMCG
Briefly: CANP inhibitory activity (method of Ishiura et al.). It counts as biochemical. The settings on record: 50% inhibition as molar ratio to the enzyme. Here is the method:
Their muscular dystrophy inhibitory activity was assayed by the method of Ishiura et al., [J. Biochem., 84, 225 (1978)] using CANP prepared from a muscle of hereditary muscular dystrophy chicken, and the resulting value for 50% inhibition in the molar ratios for the enzyme expressed as ID50 (mole/mole) is shown in Table 1 below.

The nature of series [3]: Concentration in rat plasma after subcutaneous administration. It counts as in vivo. To be noted: sc, rats, 50 mg/kg, an hour after administration. Here is the method:
The compounds of the present invention are better absorbed by the subcutaneous route in mammals such as rats or rabbits, as compared with the epoxysuccinic acid derivatives of the German Patent Laid Open Application described above and Chemical Abstracts, 87, 68129a (1977). To determine absorption, these compounds were administered subcutaneously to rats at a dose of 50 mg/kg, and the concentration of the test compound in rat plasma at an hour after the administration is shown in following Table 1.

SMILES strings stand for the structures.

Turning to `CC(C)C[C@H](NC(=O)C1OC1C(=O)O)C(=O)NCCCCCN` (mixture of isomers) [Compound 2, N-[N-(DL-3-trans-carboxyoxirane-2-carbonyl)-L-leucyl]-1,5-diaminopentane], the “Papain inhibitory activity ID50” value at papain is 0.105 µg. In addition, the “Acceleration of vascular permeability, Relative effect (%) to E-64” value (from here on “Acceleration … Relative effect (%) to E-64”) in series [1] turned out to be 2.3%. Further, the “CANP Inhibitory Activity ID50 (mole/mole)” value in series [2] was 54 mole/mole. Further, the concentration at 1 h in series [3] came out at 20000 ng/mL.

As to `CC(C)C[C@H](NC(=O)C1OC1C(=O)O)C(=O)NCCCCCCCNC(=O)OCc1ccccc1` (mixture of isomers) [Compound 3, N-[N-(DL-3-trans-carboxyoxirane-2-carbonyl)-L-leucyl]-N'-benzyloxycarbonyl-1,7-diaminoheptane], the “Papain inhibitory activity ID50” value on papain was determined as 0.203 µg. For the same compound, the “Acceleration … Relative effect (%) to E-64” value in series [1] worked out at 2.4%. Also, in series [2], the “CANP Inhibitory Activity ID50 (mole/mole)” value was determined as 20 mole/mole. The compound also showed a concentration at 1 h in series [3] of 11000 ng/mL.

Take `CC(C)C[C@H](NC(=O)[C@H]1O[C@@H]1C(=O)O)C(=O)NCCCCCCCN` [Compound 1, N-[N-(L-3-trans-carboxyoxirane-2-carbonyl)-L-leucyl]-1,7-diaminoheptane]: the “Papain inhibitory activity ID50” value on papain stood at 0.103 µg. For the same compound, in series [1], the “Acceleration … Relative effect (%) to E-64” value was found to be 2.8%. Moreover, the “CANP Inhibitory Activity ID50 (mole/mole)” value in series [2] is reported as 33 mole/mole. Besides, the concentration at 1 h in series [3] was found to be 15000 ng/mL.

As to `CC(C)C[C@H](NC(=O)[C@H]1O[C@@H]1C(=O)O)C(=O)NCCCCN=C(N)N` [Compound E-64, N-[N-(L-3-trans-carboxyoxirane-2-carbonyl)-L-leucyl]agmatine, reference compound], the “Acceleration … Relative effect (%) to E-64” value in series [1] is given as 100.0%.

For the compound `CCOC(=O)C1OC1C(=O)N[C@@H](CC(C)C)C(=O)NCCCCNC(=O)OCc1ccccc1` (stereo partly drawn) [F, N--[N--(DL3-trans-ethoxycarbonyloxirane-2-carbonyl)-L-leucyl] N'--benzyloxycarbonyl1,4-diaminobutane, reference compound], the “CANP Inhibitory Activity ID50 (mole/mole)” value in series [2] was found to be 480 mole/mole. This compound also registered a concentration at 1 h in series [3] below 1000 ng/mL.

For the origin of these results see patent US4418075A, “Epoxysuccinyl amino acid derivatives” (Taisho Pharmaceutical Co., Ltd., priority 1979, dated 1983).
